The source made the active and inactive calls.

Test [1] can be described thus: Vero E6 cell cytotoxicity, dose response, cytotoxicity control for non-replicating M. tuberculosis project, secondary assay (AID 492998). The test is classed as functional, VeroE6. To be noted: Vero C1008.
Test [2] in a line: microbe, parasite or virus in culture. It is filed as functional. To be noted: Mycobacterium tuberculosis.
Test [3] relates to INS1. Description: beta cell apoptosis inhibitors, cytokine rescue, dose response, luminescence, retest (AID 449756).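 Also: cell death triggered by IL-1 beta plus TNF-alpha plus IFN-gamma mixture; protective hits raise ATP signal compared with cytokine alone wells.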 To be noted: Rattus norvegicus. The test is classed as functional, cell-based.
Test [4] is described as follows: THP-1 cell cytotoxicity, dose response, cytotoxicity control for non-replicating M. tuberculosis project (AID 489025). The test is classed as functional.
Test [5] can be described thus: growth suppression of beta-catenin-knockout colon cells, dose response, cell-based, HCT116, human colon tumor (AID 1045).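 Also: HCT116 colon tumor cells with beta catenin knocked out; cells exposed to compound for 60 hours.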 It is filed as functional.
Test [6] is described as follows: growth suppression of PTEN-null colon cells, dose response, cell-based, HCT116 PTEN knockout (AID 1047).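 Also: HCT116 colon tumor cells with PTEN knocked out; cells exposed to compound for 60 hours before readout; potency for loss of cell viability measured by luminescence.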 The test is classed as functional.
Test [7] is described as follows: cells. It is filed as functional.
A short description of test [8]: HepG2 cell cytotoxicity, dose response, cytotoxicity control for non-replicating M. tuberculosis project (AID 489018). The test is classed as functional. To be noted: Mycobacterium tuberculosis.
In test [9] the target is Glucose-6-phosphate 1-dehydrogenase (Homo sapiens, UniProt P11413). Put plainly: human G6PD enzyme inhibitors, dose response, selectivity assay for P. falciparum G6PD inhibitor project, biochemical, fluorescence (AID 504792). The test is classed as functional.
Test [10] in a line: inhibitors of firefly luciferase expression or activity, dose response, H4 neuroglioma cells, luminescence (AID 1990). The test is classed as functional, cell-based.
Test [11] can be described thus: cytotoxicity toward NIH3T3 fibroblasts, dose response, counter-screen, cell-based, ATP luminescence, mouse fibroblasts (AID 2010).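 Also: cells exposed to compound for about 90 hours before reading.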 To be noted: NIH3T3. The test is classed as functional.
A short description of test [12]: cells. The test is classed as functional, cell-based.
The nature of test [13]: cells. It is filed as functional, cell-based. The source holds these as a separate data set.
A short description of test [14]: C. albicans growth with fluconazole, confirmation, fluorescence, retest (AID 2467). It is filed as functional, cell-based.
Test [15] can be described thus: Luminescence Cell-Based Dose Response HTS to Identify Inhibitors of 5'UTR Stem-Loop Driven Prion Protein mRNA Translation in H4 Neuroglioblastoma Cells. [Related pubchem assays: 1827 (Project Summary), 1813 (Primary HTS)]. It is filed as functional.
A short description of test [16]: inhibitors of SNCA 5'UTR-driven reporter translation, confirmation, H4 neuroglioma cells, luminescence (AID 1988). It is filed as functional, cell-based.
Test [17] has as its target Nonstructural protein 1 (Influenza A virus, UniProt Q194T2). It is filed as functional, Influenza A virus (A/California/07/2009(H1N1)).
Test [18] is described as follows: NIH-3T3 fibroblast cytotoxicity, dose response, cytotoxicity control, cell-based, fluorescence, Alamar Blue, secondary assay (AID 2327).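 Also: NIH-3T3 mouse fibroblasts cultured with fluconazole at 8 µg/mL.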 The test is classed as functional.
The nature of test [19]: inhibitors of intracellular T. cruzi replication, confirmation, NIH3T3 host cells, beta-gal luminescence (AID 2044).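 Also: intracellular parasites grown in NIH/3T3 mouse fibroblasts as host cells; luminescent beta-galactosidase reporter signal from transgenic T. cruzi replicating inside host cells; inhibitors lower the luminescence signal.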 The test is classed as functional, cell-based.
For test [20], the target named is Heat shock protein HSP 90-alpha (Homo sapiens, UniProt P07900). It is filed as functional, organism-based.
Test [21] has as its target T1, Corticotropin-releasing factor receptor 2/Corticotropin-releasing factor-binding protein (Homo sapiens, UniProt P24387+Q13324).
T1 sequence (Q13324 whole entry): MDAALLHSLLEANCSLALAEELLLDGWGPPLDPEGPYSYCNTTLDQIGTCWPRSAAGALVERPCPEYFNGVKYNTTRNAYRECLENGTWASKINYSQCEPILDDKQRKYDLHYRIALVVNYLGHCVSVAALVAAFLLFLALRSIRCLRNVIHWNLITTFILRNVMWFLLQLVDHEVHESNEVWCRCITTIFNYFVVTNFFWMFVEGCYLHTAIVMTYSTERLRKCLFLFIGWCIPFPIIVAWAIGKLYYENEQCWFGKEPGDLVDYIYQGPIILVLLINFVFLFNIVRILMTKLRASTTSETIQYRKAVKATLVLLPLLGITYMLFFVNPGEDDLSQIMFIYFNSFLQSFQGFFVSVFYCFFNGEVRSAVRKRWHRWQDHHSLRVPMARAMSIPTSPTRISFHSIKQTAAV
T1 sequence (P24387 whole entry): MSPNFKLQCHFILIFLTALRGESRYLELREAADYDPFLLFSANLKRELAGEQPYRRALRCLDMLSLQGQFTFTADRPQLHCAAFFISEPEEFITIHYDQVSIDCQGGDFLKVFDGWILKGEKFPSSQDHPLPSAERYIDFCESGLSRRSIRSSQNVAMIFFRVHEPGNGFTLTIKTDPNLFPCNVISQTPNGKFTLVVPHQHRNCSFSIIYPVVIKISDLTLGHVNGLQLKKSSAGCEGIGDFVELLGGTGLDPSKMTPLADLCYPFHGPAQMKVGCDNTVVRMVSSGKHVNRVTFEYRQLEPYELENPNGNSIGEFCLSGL
Description: Dose Response confirmation of uHTS hits for small molecule antagonists of the CRF-binding protein and CRF-R2 receptor complex. It is filed as functional. Conditions: read-out: IC50_Mean.

Test [22] addresses T1, Corticotropin-releasing factor receptor 2/Corticotropin-releasing factor-binding protein. Put plainly: activators of CRF receptor 2 with binding protein – uHTS hits, confirmation (AID 602473). It is filed as functional. Conditions: read-out: EC50_Mean.
For test [23], the target named is Voltage-dependent T-type calcium channel subunit alpha-1H (Homo sapiens, UniProt O95180). The test is classed as functional.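 Also: channel activity triggered by adding a high calcium stimulation buffer.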
Test [24] deals with T2, Carboxy-terminal domain RNA polymerase II polypeptide A small phosphatase 1 (Homo sapiens, UniProt Q9GZU7).
T2 sequence (Q9GZU7 whole entry): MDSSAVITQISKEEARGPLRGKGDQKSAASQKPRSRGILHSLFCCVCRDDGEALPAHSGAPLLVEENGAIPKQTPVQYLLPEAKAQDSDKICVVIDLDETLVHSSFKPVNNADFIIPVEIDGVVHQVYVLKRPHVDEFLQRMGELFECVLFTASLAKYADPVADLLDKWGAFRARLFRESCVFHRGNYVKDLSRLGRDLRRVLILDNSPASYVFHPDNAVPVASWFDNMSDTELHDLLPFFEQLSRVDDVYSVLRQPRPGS
Description: inhibitors of CTDSP1, concentration-response testing, biochemical assay, absorbance-based, actives from ultra-high-throughput screening (AID 540297). The test is classed as functional.

For test [25], the system named is Vero. Description: cells. The test is classed as functional. To be noted: Chlorocebus sabaeus.
The target in test [26] is T3, Streptokinase A (Streptococcus pyogenes serotype M1, UniProt P10520).
T3 sequence (P10520 whole entry): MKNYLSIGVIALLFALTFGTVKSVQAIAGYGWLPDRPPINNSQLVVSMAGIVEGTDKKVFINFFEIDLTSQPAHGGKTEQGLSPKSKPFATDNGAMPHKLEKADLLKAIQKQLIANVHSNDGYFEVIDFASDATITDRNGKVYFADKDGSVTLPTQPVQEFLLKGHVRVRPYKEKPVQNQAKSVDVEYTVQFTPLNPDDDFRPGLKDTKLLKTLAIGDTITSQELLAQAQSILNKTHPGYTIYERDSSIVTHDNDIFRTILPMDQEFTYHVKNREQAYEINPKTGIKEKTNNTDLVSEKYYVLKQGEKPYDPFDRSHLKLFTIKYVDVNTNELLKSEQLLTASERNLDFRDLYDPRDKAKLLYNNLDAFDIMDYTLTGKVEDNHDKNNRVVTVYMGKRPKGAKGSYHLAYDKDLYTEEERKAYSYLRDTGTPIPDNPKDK
Description: S. pyogenes streptokinase expression inhibitors, potency, dose response, plasminogen activation absorbance, OD405 (AID 1914).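 Also: secreted streptokinase activity via plasminogen activation per viability signal from cell pellet.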 The test is classed as functional, Streptococcus pyogenes M1 GAS.

Test [27] concerns Streptococcus. Description: Group A Streptococcus viability loss, dose response, counter-screen for streptokinase expression inhibitor project, luminescence, BacTiterGlo (AID 1915).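 Also: potency for reduction of bacterial viability or growth.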 The test is classed as functional, organism-based. Conditions: Streptococcus.
Test [28] concerns Streptococcus sp. 'group A'. Description: growth inhibition of control SK(-) GAS strain, dose response, counter-screen for streptokinase expression inhibitor project, luminescence, kanamycin, BacTiterGlo, confirmation (AID 1900). The test is classed as functional, organism-based. To be noted: Streptococcus sp. 'group A'.

Sequence of Nonstructural protein 1 (Q194T2 whole entry): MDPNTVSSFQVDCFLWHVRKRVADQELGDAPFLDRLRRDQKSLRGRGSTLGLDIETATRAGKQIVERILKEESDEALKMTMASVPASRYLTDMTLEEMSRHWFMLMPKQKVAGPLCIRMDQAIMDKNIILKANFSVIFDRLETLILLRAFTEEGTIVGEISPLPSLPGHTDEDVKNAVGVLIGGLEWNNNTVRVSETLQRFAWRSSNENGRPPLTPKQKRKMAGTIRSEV
Sequence of Glucose-6-phosphate 1-dehydrogenase (P11413 whole entry): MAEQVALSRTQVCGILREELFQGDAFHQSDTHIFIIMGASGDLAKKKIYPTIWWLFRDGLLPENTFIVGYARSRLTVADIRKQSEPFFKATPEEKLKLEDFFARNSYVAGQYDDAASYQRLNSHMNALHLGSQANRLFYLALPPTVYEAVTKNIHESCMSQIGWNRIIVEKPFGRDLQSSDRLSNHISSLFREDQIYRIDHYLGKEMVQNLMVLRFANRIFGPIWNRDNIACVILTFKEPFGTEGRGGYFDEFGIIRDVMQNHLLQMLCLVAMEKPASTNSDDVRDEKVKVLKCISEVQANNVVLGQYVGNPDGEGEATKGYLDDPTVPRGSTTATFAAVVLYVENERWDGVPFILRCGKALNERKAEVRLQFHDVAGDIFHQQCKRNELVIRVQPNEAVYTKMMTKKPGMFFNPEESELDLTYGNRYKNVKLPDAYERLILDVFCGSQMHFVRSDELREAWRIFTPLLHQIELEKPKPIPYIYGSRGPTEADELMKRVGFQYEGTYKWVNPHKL
Sequence of Voltage-dependent T-type calcium channel subunit alpha-1H (O95180 whole entry, the tested form may be a part): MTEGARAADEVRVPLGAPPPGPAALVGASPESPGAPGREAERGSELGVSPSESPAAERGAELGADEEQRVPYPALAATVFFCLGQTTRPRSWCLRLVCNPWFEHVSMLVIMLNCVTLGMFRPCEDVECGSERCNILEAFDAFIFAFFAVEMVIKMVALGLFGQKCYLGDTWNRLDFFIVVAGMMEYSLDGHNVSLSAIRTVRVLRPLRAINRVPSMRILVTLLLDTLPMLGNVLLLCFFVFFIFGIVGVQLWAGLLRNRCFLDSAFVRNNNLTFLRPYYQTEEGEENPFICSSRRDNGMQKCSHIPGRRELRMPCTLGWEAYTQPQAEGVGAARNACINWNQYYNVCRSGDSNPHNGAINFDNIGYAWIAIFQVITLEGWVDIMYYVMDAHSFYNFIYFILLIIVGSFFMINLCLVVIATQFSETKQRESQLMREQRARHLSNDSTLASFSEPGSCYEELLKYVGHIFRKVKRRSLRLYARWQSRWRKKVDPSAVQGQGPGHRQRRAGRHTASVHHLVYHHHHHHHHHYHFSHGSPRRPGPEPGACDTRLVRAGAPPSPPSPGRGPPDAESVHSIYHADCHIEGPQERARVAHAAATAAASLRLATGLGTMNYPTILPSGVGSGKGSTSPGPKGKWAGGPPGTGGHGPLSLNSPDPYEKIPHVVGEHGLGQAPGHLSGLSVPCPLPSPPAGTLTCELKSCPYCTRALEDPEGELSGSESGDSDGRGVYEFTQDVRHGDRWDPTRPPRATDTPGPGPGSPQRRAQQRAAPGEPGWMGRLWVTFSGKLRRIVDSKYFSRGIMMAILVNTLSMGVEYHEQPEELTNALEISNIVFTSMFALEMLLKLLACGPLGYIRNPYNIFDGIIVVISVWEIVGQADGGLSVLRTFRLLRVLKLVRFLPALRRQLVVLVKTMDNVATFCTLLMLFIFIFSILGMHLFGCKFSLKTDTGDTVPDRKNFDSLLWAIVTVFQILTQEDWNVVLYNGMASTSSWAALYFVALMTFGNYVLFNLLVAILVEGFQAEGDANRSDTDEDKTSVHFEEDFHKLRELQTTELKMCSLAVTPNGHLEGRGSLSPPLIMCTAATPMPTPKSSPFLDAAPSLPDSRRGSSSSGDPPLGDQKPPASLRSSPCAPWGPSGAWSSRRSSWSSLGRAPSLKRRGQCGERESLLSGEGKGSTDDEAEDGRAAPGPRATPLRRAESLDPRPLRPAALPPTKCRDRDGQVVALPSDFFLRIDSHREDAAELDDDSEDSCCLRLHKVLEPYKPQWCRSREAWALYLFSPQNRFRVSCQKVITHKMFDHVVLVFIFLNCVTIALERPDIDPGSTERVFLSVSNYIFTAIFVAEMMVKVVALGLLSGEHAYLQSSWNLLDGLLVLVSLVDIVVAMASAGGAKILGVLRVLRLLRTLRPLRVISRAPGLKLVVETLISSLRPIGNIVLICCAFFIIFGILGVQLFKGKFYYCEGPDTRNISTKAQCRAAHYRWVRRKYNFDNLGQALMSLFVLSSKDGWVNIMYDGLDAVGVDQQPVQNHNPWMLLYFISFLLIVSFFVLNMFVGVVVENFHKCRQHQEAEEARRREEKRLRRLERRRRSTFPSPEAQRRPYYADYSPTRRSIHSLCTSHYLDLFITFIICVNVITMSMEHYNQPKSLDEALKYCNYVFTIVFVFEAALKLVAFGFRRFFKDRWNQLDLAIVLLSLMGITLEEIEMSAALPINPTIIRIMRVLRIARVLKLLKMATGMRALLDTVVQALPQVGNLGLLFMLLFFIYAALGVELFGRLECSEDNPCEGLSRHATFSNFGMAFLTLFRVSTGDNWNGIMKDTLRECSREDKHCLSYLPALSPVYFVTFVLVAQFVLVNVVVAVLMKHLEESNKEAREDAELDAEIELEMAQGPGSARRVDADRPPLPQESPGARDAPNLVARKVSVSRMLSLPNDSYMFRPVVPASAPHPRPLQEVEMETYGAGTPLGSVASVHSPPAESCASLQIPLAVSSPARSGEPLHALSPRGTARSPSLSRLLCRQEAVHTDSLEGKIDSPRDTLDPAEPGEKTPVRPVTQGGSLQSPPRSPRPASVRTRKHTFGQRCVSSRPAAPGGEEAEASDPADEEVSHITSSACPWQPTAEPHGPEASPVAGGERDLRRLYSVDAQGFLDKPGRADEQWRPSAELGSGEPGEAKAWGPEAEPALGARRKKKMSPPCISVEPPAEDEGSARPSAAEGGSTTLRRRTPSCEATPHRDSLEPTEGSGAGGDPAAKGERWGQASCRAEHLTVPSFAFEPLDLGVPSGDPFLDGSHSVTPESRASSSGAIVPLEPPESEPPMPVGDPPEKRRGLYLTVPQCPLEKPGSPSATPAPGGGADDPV

Take `CC(=O)Oc1c(C)cc(Cl)cc1C(=O)Nc1ccc([N+](=O)[O-])cc1Cl`: the CC50 in [1] was 3.96 µM (active); in test [2] it was 1.54 µM (active); in test [4], 5.03 µM (active); in test [8], 7.96 µM (active). Further, the AC50 in test [3] is 1.37 µM (active). Moreover, the EC50 was 2.16 µM (active) in test [5] and 1.99 µM (active) in test [6]. Further, in test [7], the IC50 was 9.46 µM (active).
Regarding `Cc1cccc(C(=O)Nc2sc3c(c2C(=O)O)CCCC3)c1`, the IC50 in test [9] is > 80 µM (inactive).
On to `CN1CCN(Cc2cc(COCc3ccccc3)c3cccnc3c2O)CC1`, for which the EC50 in test [10] is 7.01 µM (active); in test [11], 7.62 µM (active); in test [12], 7.14 µM (active); in [13], > 350 µM (not active); in [14] it was 0.8 µM (active); in [15], 8.1 µM (active). In addition, the EC50 was 3.23 µM (active) in test [5]; 5.83 µM (active) in [16]; 3.11 µM (active) in test [6]; > 150 µM (inconclusive) in [18]; 1.37 µM (active) in test [19]. Further, the IC50 in [17] is 3.98 µM (active).
Regarding `CN1C(=O)C(N=Nc2ccc([N+](=O)[O-])cc2)SC1=S` (stereo unspecified), the AC50 in [20] was 14.5 µM (active). In addition, the results for the IC50 in test [9] and in [21] were > 80 µM (inactive) and < 0.368 µM (active), respectively. In addition, the EC50 in test [22] was 1.69 µM (active).
`Cc1c(C(=O)NCC2COc3ccccc3O2)oc2ccc(S(=O)(=O)N(C)C3CCCCC3)cc12` (stereo unspecified): the figures for the EC50 in [11], in test [23] and in test [19] were > 60 µM (not active), 5.64 µM (active) and 1.89 µM (active), respectively.
Consider `O=C(NNC(=O)c1ccc2ccccc2c1)c1ccc(Cl)c(Cl)c1`, for which the IC50 in test [24] is > 80 µM (inactive).
`Cc1cc(NCc2ccccn2)n2nc(C)c(-c3ccccc3)c2n1`: the CC50 in test [1] was 13.6 µM (active); in test [4], 6.19 µM (active); in test [8], 3.11 µM (active). Also, the IC50 in test [7] was 3.2 µM (active).
`O=C(CSc1ccccn1)Nc1ccc2c(c1)C(=O)c1ccccc1C2=O`: the IC50 in [24] was 3.08 µM (active).
In the case of `CC(C)Cn1c(SCC(=O)c2ccc(Cl)s2)nnc1-c1ccco1`, the CC50 in [25] was > 25 µM (active). In addition, the EC50 in [23] is 10.6 µM (active).
Consider `CC1CCN(CCc2nc3cc(NC(=O)COc4ccc(Cl)cc4)ccc3n2C)CC1`, for which the CC50 in [4] is 26.1 µM (active); in test [8], > 20 µM (active). For the same molecule, the IC50 in test [7] was 28.1 µM (active).
As for `CCCc1cc(NCc2ccccn2)n2nc(C)c(-c3ccccc3)c2n1`, the EC50 was > 150 µM (not active) in test [26]; 8.73 µM (active) in test [11]; 21.7 µM (active) in test [27]; 6.67 µM (active) in [28]; 3.58 µM (active) in test [19]. In addition, the AC50 in test [20] is 1.58 µM (active). The figures for the CC50 in test [1], in test [4] and in [8] were > 20 µM (active), 10.2 µM (active) and 4.48 µM (active), respectively. Moreover, in test [7], the IC50 is 1.18 µM (active).
On to `N[C@@H](C(=O)N[C@@H]1C(=O)N2C(C(=O)O)=C(Cl)CS[C@H]12)c1ccccc1` [CEFACLOR ANHYDROUS], for which the EC50 in [26] was > 150 µM (not active); in test [27] it was 1.32 µM (active); in test [28], 0.559 µM (active). Moreover, the IC50 in [24] was 7.18 µM (active).
As to `CCC(=O)Nc1nc2ccccc2n1Cc1ccc(C)cc1`, the EC50 was 15.1 µM (active) in [10], 11.8 µM (active) in [15] and 8.69 µM (active) in test [16]. The CC50 in test [1] is 16.1 µM (active); in test [4] it was > 40 µM (active); in [8] it was > 20 µM (active). For the same molecule, the IC50 in [7] was 0.7 µM (active).
Take `CN(C)c1ccc(N=Nc2ccc3ncccc3c2)cc1`: the IC50 in test [17] was 20.4 µM (active).
Regarding `Cc1cccc(C)c1NC(=O)C(Cl)C(=O)c1ccccc1` (stereo unspecified), the AC50 in test [20] was 0.855 µM (active).
Regarding `O=C(Cn1cnc2scc(-c3cccc([N+](=O)[O-])c3)c2c1=O)NCc1ccco1`, in test [24], the IC50 is 3.15 µM (active).
For the molecule `CC1=[N+](C)c2c(ccc3cccnc23)C1(C)C`, the IC50 in test [17] was > 100 µM (active).
As to `Cc1cccc(OCC(=O)NCC(=O)N/N=C/c2ccccc2)c1`, the IC50 in test [9] is > 80 µM (inactive).
As to `CCOC(=O)c1ccc(N2C(=O)CC(N(C)CCc3ccc(OC)c(OC)c3)C2=O)cc1` (stereo unspecified), the AC50 in test [20] is 3.1 µM (active).

These data come from ChEMBL document CHEMBL1201862, “PubChem BioAssay data set” (2004).
